{"source": "patent US20120149080A1", "about": "“YEAST PRODUCTION CULTURE FOR THE PRODUCTION OF BUTANOL” (Butamax(TM) Advanced Biofuels LLC, priority 2010, published 2012)", "key": {"[1]": {"system": "Saccharomyces cerevisiae BY4743", "experiment": "Growth (OD600) of yeast in varying isobutanol concentrations", "assay_type": "cell-based", "method": "Saccharomyces cerevisiae BY4743 was plated from a freezer vial onto YPD agar (Teknova, Hollister, Calif.; Cat. #Y1000) and incubated overnight at 30° C. Cells from the YPD plate were inoculated into a 25 ml pre-culture of YPD broth (Teknova, Hollister, Calif.; Cat. #Y5000) with an initial OD600 of 0.06 to 0.08. The pre-culture was grown for 7 hours in an aerobic shaker at 30° C. An aliquot of the pre-culture was inoculated into 125 ml of YPD broth, with an initial OD600 of 0.06 to 0.08, and this culture was incubated with aeration at 30° C. for approximately 17 hours.\nA starter culture of 150 ml of YPD was inoculated with 5 ml of the overnight culture with an initial OD600 of 0.15. This culture was incubated at 30° C. with aeration for two hours, reaching OD600 of 0.38. At this time (time=0) the cultures were challenged with varying concentrations of isobutanol as given in Table 4 and the OD600 was assayed every hour for 5 h and at 24 h."}, "[2]": {"experiment": "Alcohol concentration of cultures after 24 hours by HPLC", "assay_type": "physicochemical", "details": "Example 2 cultures, 30° C.", "method": "Saccharomyces cerevisiae BY4743 (ATCC 201390) was plated from a freezer vial onto YPD agar (Teknova, Hollister, Calif.; Cat. #Y1000) and incubated overnight at 30° C. Cells from the YPD plate were inoculated into a 25 ml pre-culture of YPD broth (Teknova; Cat. #Y5000) with an initial OD600 of 0.06 to 0.08. The pre-culture was grown for 7 hours in an aerobic shaker at 30° C. An aliquot of the pre-culture was inoculated into 200 ml of YPD broth, with an initial OD600 of 0.06 to 0.08, and this culture was incubated with aeration at 30° C. for approximately 17 hours. The optical density of the culture was measured, the culture was centrifuged and the cells were resuspended to yield an OD600 of 5 in fresh YPD broth. This is referred to as a high cell density (HCD) culture. […] This is referred to as a low the cell density (LCD) culture. These cultures were incubated at 30° C. with shaking for 30 minutes for an acclimation period. At the end of the 30 minute acclimation period, the OD600 was measured. 5 ml of low or high cell density culture was dispensed to 15 ml conical tubes which contained different concentrations of the alcohol to be tested. […] All samples were filtered with Acrodisc CR PTFE 0.2 μm filters (Pall Life Sciences, Port Washington, N.Y.) and analyzed using a Shodex SH1011 column (8 mm ID×300 mm length; Showa Denko America, Inc., New York, N.Y.) and a Shodex SH-G as a guard column. […]"}, "[3]": {"system": "S. cerevisiae PNY0569", "experiment": "Glucose utilization rate under non-growing conditions in buffer", "assay_type": "cell-based, Saccharomyces cerevisiae", "details": "PNY0569, 20 g/L isobutanol", "method": "(§1) Isobutanol production may or may not be coupled to growth. Therefore we measured the glucose consumption rates under non-growing conditions using three different pH buffers.\n(§2) Glucose consumption rates were determined in phosphate buffer pH 6.5 as outlined by Diderich, J. A., et al., Microbiology, 1999, 145 p. 3447-54. We also determined the glucose consumption rates at pH 5.25 and pH 4.0 using MES buffer.\n(§3) Cells were grown overnight at 30° C. in YPD (125 ml in a 500 ml flask). Cells were centrifuged and resuspended in buffer (0.1M phosphate buffer pH 6.0 or 0.1M MES buffer pH 5.25 or 0.1M MES buffer pH 4.0), washed one time, and then resuspended such that each cell suspension had approximately 16 OD or 160 million cell/ml. 10 ml of these stock cells were transferred to flasks containing 10 ml of the corresponding buffer containing 40 g/L glucose and varying concentrations of isobutanol. At various times samples (500 to 700 ul) were transferred to a tube containing an equal volume of 10% TCA. Samples were centrifuged and glucose determined in the YSI glucose analyzer. Glucose consumption rates were determined by plotting the amount of glucose consumed over time."}, "[4]": {"system": "S. cerevisiae PNY0602", "experiment": "Glucose utilization rate under non-growing conditions in buffer", "assay_type": "cell-based, Saccharomyces cerevisiae", "details": "PNY0602, 20 g/L isobutanol", "method": "as §1, §2, §3"}, "[5]": {"system": "S. cerevisiae PNY0614", "experiment": "Glucose utilization rate under non-growing conditions in buffer", "assay_type": "cell-based, Saccharomyces cerevisiae", "details": "PNY0614, 20 g/L isobutanol", "method": "as §1, §2, §3"}}}
{"smiles": "CC(C)CO", "note": "[Isobutanol, isobutanol]", "values": [{"measurement": "Growth (OD 600)", "setting": "[1]; 0.5% isobutanol, 1 hour", "result": 0.55, "unit": "OD 600"}, {"measurement": "Growth (OD 600)", "setting": "[1]; 0.5% isobutanol, 2 hours", "result": 0.74, "unit": "OD 600"}, {"measurement": "Growth (OD 600)", "setting": "[1]; 0.5% isobutanol, 3 hours", "result": 1.12, "unit": "OD 600"}, {"measurement": "Growth (OD 600)", "setting": "[1]; 0.5% isobutanol, 4 hours", "result": 1.69, "unit": "OD 600"}, {"measurement": "Growth (OD 600)", "setting": "[1]; 0.5% isobutanol, 5 hours", "result": 2.22, "unit": "OD 600"}, {"measurement": "Growth (OD 600)", "setting": "[1]; 0.5% isobutanol, 24 hours", "result": 5.19, "unit": "OD 600"}, {"measurement": "Growth (OD 600)", "setting": "[1]; 0.5% isobutanol, time 0 hours", "result": 0.38, "unit": "OD 600"}, {"measurement": "Growth (OD 600)", "setting": "[1]; 0.75% isobutanol, 1 hour", "result": 0.54, "unit": "OD 600"}, {"measurement": "Growth (OD 600)", "setting": "[1]; 0.75% isobutanol, 2 hours", "result": 0.68, "unit": "OD 600"}, {"measurement": "Growth (OD 600)", "setting": "[1]; 0.75% isobutanol, 3 hours", "result": 1.00, "unit": "OD 600"}, {"measurement": "Growth (OD 600)", "setting": "[1]; 0.75% isobutanol, 4 hours", "result": 1.36, "unit": "OD 600"}, {"measurement": "Growth (OD 600)", "setting": "[1]; 0.75% isobutanol, 5 hours", "result": 1.80, "unit": "OD 600"}, {"measurement": "Growth (OD 600)", "setting": "[1]; 0.75% isobutanol, 24 hours", "result": 4.97, "unit": "OD 600"}, {"measurement": "Growth (OD 600)", "setting": "[1]; 0.75% isobutanol, time 0 hours", "result": 0.38, "unit": "OD 600"}, {"measurement": "Growth (OD 600)", "setting": "[1]; 1% isobutanol, 1 hour", "result": 0.51, "unit": "OD 600"}, {"measurement": "Growth (OD 600)", "setting": "[1]; 1% isobutanol, 2 hours", "result": 0.62, "unit": "OD 600"}, {"measurement": "Growth (OD 600)", "setting": "[1]; 1% isobutanol, 3 hours", "result": 0.82, "unit": "OD 600"}, {"measurement": "Growth (OD 600)", "setting": "[1]; 1% isobutanol, 4 hours", "result": 0.96, "unit": "OD 600"}, {"measurement": "Growth (OD 600)", "setting": "[1]; 1% isobutanol, 5 hours", "result": 1.16, "unit": "OD 600"}, {"measurement": "Growth (OD 600)", "setting": "[1]; 1% isobutanol, 24 hours", "result": 4.41, "unit": "OD 600"}, {"measurement": "cell concentration reached", "setting": "[1]; 1% isobutanol, after overnight growth, one OD600 = 10^7 cells/ml", "result": "about 4×10^7 cells/ml"}, {"measurement": "Growth (OD 600)", "setting": "[1]; 1% isobutanol, time 0 hours", "result": 0.38, "unit": "OD 600"}, {"measurement": "Growth (OD 600)", "setting": "[1]; 1.5% isobutanol, 1 hour", "result": 0.46, "unit": "OD 600"}, {"measurement": "Growth (OD 600)", "setting": "[1]; 1.5% isobutanol, 2 hours", "result": 0.50, "unit": "OD 600"}, {"measurement": "Growth (OD 600)", "setting": "[1]; 1.5% isobutanol, 3 hours", "result": 0.53, "unit": "OD 600"}, {"measurement": "Growth (OD 600)", "setting": "[1]; 1.5% isobutanol, 4 hours", "result": 0.61, "unit": "OD 600"}, {"measurement": "Growth (OD 600)", "setting": "[1]; 1.5% isobutanol, 5 hours", "result": 0.65, "unit": "OD 600"}, {"measurement": "Growth (OD 600)", "setting": "[1]; 1.5% isobutanol, 24 hours", "result": 1.41, "unit": "OD 600"}, {"measurement": "Growth (OD 600)", "setting": "[1]; 1.5% isobutanol, time 0 hours", "result": 0.38, "unit": "OD 600"}, {"measurement": "Growth (OD 600)", "setting": "[1]; 2% isobutanol, 1 hour", "result": 0.43, "unit": "OD 600"}, {"measurement": "Growth (OD 600)", "setting": "[1]; 2% isobutanol, 2 hours", "result": 0.46, "unit": "OD 600"}, {"measurement": "Growth (OD 600)", "setting": "[1]; 2% isobutanol, 3 hours", "result": 0.47, "unit": "OD 600"}, {"measurement": "Growth (OD 600)", "setting": "[1]; 2% isobutanol, 4 hours", "result": 0.49, "unit": "OD 600"}, {"measurement": "Growth (OD 600)", "setting": "[1]; 2% isobutanol, 5 hours", "result": 0.50, "unit": "OD 600"}, {"measurement": "Growth (OD 600)", "setting": "[1]; 2% isobutanol, 24 hours", "result": 0.90, "unit": "OD 600"}, {"measurement": "Growth (OD 600)", "setting": "[1]; 2% isobutanol, time 0 hours", "result": 0.38, "unit": "OD 600"}, {"measurement": "Growth (OD 600)", "setting": "[1]; 2.5% isobutanol, 1 hour", "result": 0.42, "unit": "OD 600"}, {"measurement": "Growth (OD 600)", "setting": "[1]; 2.5% isobutanol, 2 hours", "result": 0.42, "unit": "OD 600"}, {"measurement": "Growth (OD 600)", "setting": "[1]; 2.5% isobutanol, 3 hours", "result": 0.42, "unit": "OD 600"}, {"measurement": "Growth (OD 600)", "setting": "[1]; 2.5% isobutanol, 4 hours", "result": 0.45, "unit": "OD 600"}, {"measurement": "Growth (OD 600)", "setting": "[1]; 2.5% isobutanol, 5 hours", "result": 0.45, "unit": "OD 600"}, {"measurement": "Growth (OD 600)", "setting": "[1]; 2.5% isobutanol, 24 hours", "result": 0.52, "unit": "OD 600"}, {"measurement": "Growth (OD 600)", "setting": "[1]; 2.5% isobutanol, time 0 hours", "result": 0.38, "unit": "OD 600"}, {"measurement": "alcohol lost during the incubation period", "setting": "[2]", "result": "< 0.01", "unit": "%"}, {"measurement": "Glucose Utilization (g/gdcw/h)", "setting": "[3]; pH 4, non-growing", "result": 0.7, "unit": "g/gdcw/h"}, {"measurement": "Glucose Utilization (g/gdcw/h)", "setting": "[3]; pH 5.25, non-growing", "result": 0.8, "unit": "g/gdcw/h"}, {"measurement": "Glucose Utilization (g/gdcw/h)", "setting": "[3]; pH 6.5, non-growing", "result": 0.6, "unit": "g/gdcw/h"}, {"measurement": "Glucose Utilization (g/gdcw/h)", "setting": "[4]; pH 4, non-growing", "result": 0.9, "unit": "g/gdcw/h"}, {"measurement": "Glucose Utilization (g/gdcw/h)", "setting": "[4]; pH 5.25, non-growing", "result": 1.1, "unit": "g/gdcw/h"}, {"measurement": "Glucose Utilization (g/gdcw/h)", "setting": "[4]; pH 6.5, non-growing", "result": 0.7, "unit": "g/gdcw/h"}, {"measurement": "Glucose Utilization (g/gdcw/h)", "setting": "[5]; pH 4, non-growing", "result": 0.9, "unit": "g/gdcw/h"}, {"measurement": "Glucose Utilization (g/gdcw/h)", "setting": "[5]; pH 5.25, non-growing", "result": 1.1, "unit": "g/gdcw/h"}, {"measurement": "Glucose Utilization (g/gdcw/h)", "setting": "[5]; pH 6.5, non-growing", "result": 0.7, "unit": "g/gdcw/h"}]}
